Data taken from ChEMBL document CHEMBL5236579, “Hydrophobicity Determines the Bacterial Killing Rate of α-Helical Antimicrobial Peptides and Influences the Bacterial Resistance Development” (J Med Chem, 2022).
pKd: −log10 of the molar value. Converted amounts (≈) assume the structure as drawn. The source made the active and inactive calls. The calls are words filed in the database; no cut-off is given here. Where a SMILES comes first, the peptide text is derived from it.

How the values were obtained:
Vibrio parahaemolyticus [1] = assay: Antimicrobial activity against Vibrio parahaemolyticus ATCC17802 by two fold broth microdilution method; type: functional
Staphylococcus aureus [2] = assay: Antimicrobial activity against Staphylococcus aureus ATCC25923 by two fold broth microdilution method; type: functional; settings: read-out: MIC
Escherichia coli [3] = assay: Antimicrobial activity against Escherichia coli ATCC27622 by two fold broth microdilution method; type: functional
Vibrio parahaemolyticus [4] = assay: Induction of bacterial resistance in Vibrio parahaemolyticus ATCC17802 assessed as fold increase in MIC treated over 30 serial passages measured after 24 hrs; type: functional
Bacillus cereus = assay: Antimicrobial activity against clinical isolates Bacillus cereus by two fold broth microdilution method; type: functional
Staphylococcus aureus [5] = assay: Antimicrobial activity against clinical isolates Staphylococcus aureus by two fold broth microdilution method; type: functional
Vibrio parahaemolyticus [6] = assay: Bactericidal activity against Vibrio parahaemolyticus ATCC17802 assessed as killing rate at 0.5 X MIC by measuring time limit of detection by bacterial killing kinetic assay; type: functional
Cell membrane [7] = assay: Induction of inner membrane permeabilization in Vibrio parahaemolyticus ATCC17802 at 5 times MIC measured upto 200 mins by propidium iodide penetration assay; type: cell membranes
Cell membrane [8] = assay: Induction of inner membrane permeabilization in Vibrio parahaemolyticus ATCC17802 assessed as increase in PI fluorescence intensity at 5 times MIC by propidium iodide penetration assay; type: cell membranes; settings: time <= 200.0 min
Cell membrane [9] = assay: Induction of bacterial inner membrane permeabilization in Vibrio parahaemolyticus ATCC17802 assessed as calcein leakage from large unilamellar vesicles liposomes at 5 times MIC by fluorescence based microplate reader assay; type: cell membranes; settings: time <= 60.0 min, TDE = time-dependent effect
Cell membrane [10] = assay: Induction of inner membrane permeabilization in Vibrio parahaemolyticus ATCC17802 assessed as calcein leakage at 5 times MIC by calcein-AM leakage assay; type: cell membranes; settings: time <= 200.0 min, TDE = time-dependent effect
Vibrio parahaemolyticus [11] = assay: Induction of morphological changes in Vibrio parahaemolyticus ATCC17802 assessed as massive cell collapse incubated at 5 times MIC and measured after 60 mins by scanning electron microscopy based analysis; type: functional, organism-based
Cell membrane [12] = assay: Induction of outer membrane permeabilization in Vibrio parahaemolyticus ATCC17802 assessed as increase fluorescence intensity at 0.5 to 2 times of MIC by NPN uptake assay; type: cell membranes; settings: time <= 15.0 min, TDE = time-dependent effect
Vibrio parahaemolyticus [13] = assay: Induction of morphological changes in Vibrio parahaemolyticus ATCC17802 assessed as surface fibrosis incubated at 5 times MIC and measured after 60 mins by scanning electron microscopy based analysis; type: functional, organism-based
[14] = Hemolytic activity in human erythrocytes measured after 30 mins; type: toxicity, cell-based; settings: erythrocyte, 0.5 h
Lipopolysaccharide (LPS) [15] = assay: Binding affinity to Escherichia coli LPS assessed as dissociation constant measured upto 600 sec by surface plasmon resonance imaging method
Cell membrane [16] = assay: Induction of outer membrane permeabilization in Escherichia coli ATCC25722 assessed as increase fluorescence intensity at 0.5 to 2 times of MIC by NPN uptake assay; type: cell membranes; settings: time <= 15.0 min, TDE = time-dependent effect
Vibrio parahaemolyticus [17] = assay: Induction of morphological changes in Vibrio parahaemolyticus ATCC17802 assessed as cellular inclusion leakage incubated at 5 times MIC and measured after 60 mins by scanning electron microscopy based analysis; type: functional, organism-based
[18] = Effect on morphological changes in POPC/POPG (3:1) bilayer membrane assessed as formation of bulge aggregates by measuring the height of bulges at 2 ug/ml incubated for 40 mins under neutral pH and low ionic strength by atomic force microscopic analysis; type: cell membranes; settings: Cell membrane, dose 2.0 µg/ml
Cell membrane [19] = assay: Binding affinity to Vibrio parahaemolyticus ATCC17802 cell membrane assessed as increase in fluorescence intensity measured after 120 mins by flow cytometry analysis (reference value: 1.88%); type: cell membranes
Cell membrane [20] = assay: Induction of cytoplasmic membrane permeabilization in Vibrio parahaemolyticus […] assessed as calcein transmembrane diffusion into interior of gaint unilamellar vesicles by measuring time to equilibrium between inside and outside of vesicles at 2 ug/mL by confocal microscopy based calcein-AM leakage assay; type: cell membranes; settings: dose 2.0 µg/ml
Cell membrane [21] = assay: Induction of outer membrane permeabilization in Escherichia coli ATCC25722 assessed as increase fluorescence intensity measured upto 15 mins by NPN uptake assay; type: cell membranes
Cell membrane [22] = assay: Induction of outer membrane permeabilization in Vibrio parahaemolyticus ATCC17802 assessed as increase fluorescence intensity measured upto 15 mins by NPN uptake assay; type: cell membranes
Escherichia coli [23] = assay: In vivo antibacterial activity against Escherichia coli ATCC25722 infected in Balb/c mouse model assessed as reduction in bacterial CFU count on skin at 20 ug/ml applied 4 hrs after infection and measured after 120 mins; type: functional, organism-based; settings: dose 20.0 µg/ml
Peritoneal macrophage = assay: Cytotoxicity against mouse peritoneal macrophage cells incubated for 48 hrs by MTT assay; type: toxicity, cell-based; settings: dose < 250 µg/ml
Cell membrane [24] = assay: Binding affinity to Vibrio parahaemolyticus ATCC17802 cell membrane assessed as increase in fluorescence intensity measured after 30 mins by flow cytometry analysis (reference value: 1.85%); type: cell membranes
Lipopolysaccharide (LPS) [25] = assay: Binding affinity to Escherichia coli LPS assessed as LPS neutralizing activity measured after 5 mins by LPS neutralization assay
HaCaT = assay: Cytotoxicity against human HaCaT cells incubated for 48 hrs by MTT assay; type: toxicity, cell-based; settings: dose < 250 µg/ml
Escherichia coli [26] = assay: In vivo antibacterial activity against Escherichia coli ATCC25722 infected in Balb/c mouse model assessed as reduction in bacterial CFU count on skin at 20 ug/ml incubated for 6 hrs post infection and measured after 2 hrs post compound treatment; type: functional, organism-based; settings: dose 20.0 µg/ml, time 8.0 hrs
Staphylococcus aureus [27] = assay: Bactericidal activity against Staphylococcus aureus ATCC25923 assessed as killing rate at 0.5 X MIC measured upto 180 min by bacterial killing kinetic assay; type: functional, organism-based
Escherichia coli [28] = assay: Bactericidal activity against Escherichia coli ATCC25722 assessed as killing rate at 0.5 X MIC measured upto 180 min by bacterial killing kinetic assay; type: functional, organism-based

SMILES | MIC (Vibrio parahaemolyticus [1]) [µg/mL] | MIC (Staphylococcus aureus [2]) [µg/mL] | MIC (Escherichia coli [3]) [µg/mL] | fold change (FC) (Vibrio parahaemolyticus [4]) | MIC (Bacillus cereus) [µg/mL] | MIC (Staphylococcus aureus [5]) [µg/mL] | Time (Vibrio parahaemolyticus [6]) [min] | Activity (Cell membrane [7]) | Activity (Cell membrane [8]) | Activity (Cell membrane [10]) | further results
CC1(C)S[C@@H]2[C@H](NC(=O)[C@H](N)c3ccccc3)C(=O)N2[C@H]1C(=O)O [AMPICILLIN] | 0.59 (≈ 1.69 µM) | 0.59 (≈ 1.69 µM) | 2.34 (≈ 6.7 µM) | 32 | 4.69 (≈ 13.4 µM) | > 200 | – | – | – | – | –
CC[C@H](C)[C@H](NC(=O)[C@H](CC(C)C)NC(=O)[C@H](CCCNC(=N)N)NC(=O)[C@H](CC(C)C)NC(=O)[C@H](CC(C)C)NC(=O)[C@H](CCCCN)NC(=O)[C@H](CCCCN)NC(=O)[C@H](Cc1ccccc1)NC(=O)[C@H](CC(C)C)NC(=O)CNC(=O)[C@@H](N)CC(C)C)C(=O)N[C@@H](CCCCN)C(=O)N[C@@H](CCCCN)C(=O)NCC(=O)N[C@@H](Cc1ccccc1)C(=O)N[C@@H](CCCCN)C(=O)N[C@@H](CC(C)C)C(=O)O (H-LGLFKKLLRLIKKGFKL-OH) | 4.69 (≈ 2.33 µM) | 1.17 (≈ 0.58 µM) | 9.38 (≈ 4.65 µM) | – | 9.38 (≈ 4.65 µM) | 9.38 (≈ 4.65 µM) | 30 | Active | Active | Tde | Activity (Cell membrane [9]): Tde
CC[C@H](C)[C@H](NC(=O)[C@H](CC(C)C)NC(=O)[C@H](CCCNC(=N)N)NC(=O)[C@H](CC(C)C)NC(=O)[C@H](CC(C)C)NC(=O)[C@H](CCCCN)NC(=O)[C@H](CCCCN)NC(=O)[C@H](Cc1ccccc1)NC(=O)[C@H](CC(C)C)NC(=O)CNC(=O)[C@@H](N)CC(C)C)C(=O)N[C@@H](CCCCN)C(=O)N[C@@H](CCCCN)C(=O)NCC(=O)N[C@@H](Cc1ccccc1)C(=O)N[C@@H](CCCCN)C(=O)N[C@@H](CCCCN)C(=O)O (H-LGLFKKLLRLIKKGFKK-OH) | 4.69 (≈ 2.31 µM) | 2.34 (≈ 1.15 µM) | 9.38 (≈ 4.62 µM) | 2 | 4.69 (≈ 2.31 µM) | 18.8 (≈ 9.23 µM) | 60 | Active | Active | Tde | Activity (Vibrio parahaemolyticus [11]): Active; Activity (Cell membrane [12]): Tde; Activity (Vibrio parahaemolyticus [13]): Active; Activity [14]: Toxic; pKd (Lipopolysaccharide (LPS) [15]): 4.31; Activity (Cell membrane [16]): Tde; Activity (Vibrio parahaemolyticus [17]): Active; Activity [18]: 1 nm; Activity (Cell membrane [19]): 99.4%; TIME (Cell membrane [20]): < 0.25 h; Activity (Cell membrane [21]): Dose-Dependent Effect; Activity (Cell membrane [22]): Dose-Dependent Effect; Activity (Escherichia coli [23]): Active; Activity (Peritoneal macrophage): Dose-Dependent Effect; Activity (Cell membrane [24]): 64.3%; Activity (Lipopolysaccharide (LPS) [25]): inactive; Activity (HaCaT): Dose-Dependent Effect; Activity (Escherichia coli [26]): Active
CC[C@H](C)[C@H](NC(=O)[C@H](CCCCN)NC(=O)[C@H](CC(C)C)NC(=O)[C@H](C)NC(=O)CNC(=O)[C@H](CC(N)=O)NC(=O)[C@H](CC(C)C)NC(=O)[C@@H](NC(=O)[C@H](CCCCN)NC(=O)[C@H](CCCCN)NC(=O)[C@H](Cc1c[nH]c2ccccc12)NC(=O)[C@H](Cc1ccccc1)NC(=O)[C@H](CCCCN)NC(=O)[C@H](CCCNC(=N)N)NC(=O)[C@H](CCCNC(=N)N)NC(=O)[C@@H](N)[C@@H](C)O)C(C)C)C(=O)N[C@@H](C)C(=O)O (H-TRRKFWKKVLNGALKIA-OH) | 4.69 (≈ 2.31 µM) | 4.69 (≈ 2.31 µM) | 9.38 (≈ 4.62 µM) | – | 9.38 (≈ 4.62 µM) | 18.8 (≈ 9.24 µM) | 30 | – | – | – | Activity (Staphylococcus aureus [27]): Active; Activity (Escherichia coli [28]): Active
